Reference: patent US20110207764A1, “CYCLOPOLYSACCHARIDE COMPOSITIONS” (priority 2010, published 2011)

experiment: Concentration of active ingredient dissolved in 60% (w/w) aqueous SBECD after filtration, determined by HPLC; assay type: physicochemical; details: boiling water bath 1 hour, room temperature 24 hours, 0.2 micrometer filter
Description: (§1) 200 mg of coumarin were added to 4 g of 60% (w/w) aqueous SBECD, and the mixture was mixed at 34° C. for 48 hours, and then filtered through a 0.2 micrometer nylon filter to produce 44.3 mg/g coumarin solution, as determined by HPLC. 40 mg of cetylpiridinium chloride were added to the solution and mixed until completely dissolved, and the composition was filtered.
as §1, with “400” for “200”, “ibuprofen” for “coumarin”, “78.1” for “44.3”, “60” for “40”, “triethanoloamine” for “cetylpiridinium chloride”
as §1, with “2” for “200”, “paclitaxel” for “coumarin”, “0.4” for “44.3”, “heptakis(6-guanidino-6-deoxy)-beta-cyclodextrin” for “cetylpiridinium chloride”
200 mg of diindolylmethane were added to 4 g of 60% (w/w) aqueous SBECD, and the mixture was heated in boiling water bath for 1 hour, then kept at room temperature for 24 hours. The mixture was then filtered through a 0.2 micrometer nylon filter to produce 40.3 mg/g diindolylmethane solution, as determined by HPLC. 24 mg of octakis(6-guanidino-6-deoxy)-gamma-cyclodextrin were added to the solution and mixed until completely dissolved, and the composition was filtered.
10 mg of Semaxanib (3-((3,5-dimethyl-1H-pyrrol-2-yl)methylene)indolin-2-one) were added to 4 g of 60% (w/w) aqueous SBECD, and the mixture was heated in boiling water bath for 1 hour, then kept at room temperature for 24 hours. The mixture was then filtered through a 0.2 micrometer nylon filter to produce 1.3 mg/g semaxanib solution, as determined by HPLC. 80 mg of PI2080 (polyethyleneimine 2000 conjugated with PEG 8000) were added and mixed until completely dissolved, and the composition was filtered.
40 mg of xanthone (9H-xanthen-9-one) were added to 4 g of 60% (w/w) aqueous SBECD, and the mixture was heated in boiling water bath for 1 hour, then kept at room temperature for 24 hours. The mixture was filtered through a 0.2 micrometer nylon filter to produce 8.2 mg/g xanthone solution, as determined by HPLC. 120 mg of low molecular weight protamine were added and mixed until completely dissolved, and the composition was filtered.
100 mg of carvedilol were added to 4 g of 60% (w/w) aqueous SBECD, and the mixture was heated in boiling water bath for 1 hour, then kept at room temperature for 24 hours. The mixture was filtered through a 0.2 micrometer nylon filter to produce 22.6 mg/g carvedilol solution, as determined by HPLC. 120 mg of hexakis(6-amino-6-deoxy)-alpha-cyclodextrin were dissolved in 2 mL water, and the two solutions mixed until completely homogenous. The product solution was freeze-dried to form an amorphous solid.
10 mg of talidomid were added to 4 g of 60% (w/w) aqueous SBECD, and the mixture was mixed at 34° C. for 48 hours. The mixture was filtered through a 0.2 micrometer nylon filter to produce 1.7 mg/g talidomid solution, as determined by HPLC. 120 mg of heptakis(6-amino-6-deoxy)-beta-cyclodextrin were added and mixed until completely dissolved, and the composition was filtered.
2 mg of SN-38 (7-Ethyl-10-hydroxy-camptothecin) were added to 4 g of 60% (w/w) aqueous SBECD, and the mixture was heated in boiling water bath for 1 hour, then kept at room temperature for 24 hours. The mixture was filtered through a 0.2 micrometer nylon filter to produce 0.39 mg/g SN-38 solution, as determined by HPLC. A solution of 60 mg of heptakis(6-amino-6-deoxy)-beta-cyclodextrin in 2 mL water was added to the SN-38 solution, and mixed until the resulting solution was completely homogenous. The composition was filtered. […]

| concentration of active ingredient in filtered solution | SMILES |
| --- | --- |
| 4.3 mg/g | CC(=O)[C@@]1(O)CC[C@H]2[C@@H]3C=C(C)C4=CC(=O)CC[C@]4(C)[C@H]3CC[C@@]21C [megesterol] |
| 22.6 mg/g | COc1ccccc1OCCNCC(O)COc1cccc2[nH]c3ccccc3c12 (stereo not drawn) [carvedilol] |
| 1.3 mg/g | Cc1cc(C)c(C=C2C(=O)Nc3ccccc32)[nH]1 [semaxanib, 3-((3,5-dimethyl-1H-pyrrol-2-yl)methylene)indolin-2-one] |

| SMILES | concentration of active ingredient in filtered solution |
| --- | --- |
| CCc1c2c(nc3ccc(O)cc13)-c1cc3c(c(=O)n1C2)COC(=O)[C@]3(O)CC [SN-38, 7-Ethyl-10-hydroxy-camptothecin] | 0.39 mg/g |
| O=c1c2ccccc2oc2ccccc12 [xanthone, 9H-xanthen-9-one] | 8.2 mg/g |

same assay, conditions: mixed at 34° C. for 48 hours, 0.2 micrometer filter

| concentration of active ingredient in filtered solution | SMILES |
| --- | --- |
| 1.7 mg/g | O=C1CCC(N2C(=O)c3ccccc3C2=O)C(=O)N1 (stereo not drawn) [talidomid] |
| 0.4 mg/g | CC(=O)O[C@H]1C(=O)[C@@]2(C)[C@H]([C@H](OC(=O)c3ccccc3)[C@]3(O)C[C@H](OC(=O)[C@H](O)[C@@H](NC(=O)c4ccccc4)c4ccccc4)C(C)=C1C3(C)C)[C@]1(OC(C)=O)CO[C@@H]1C[C@@H]2O [paclitaxel] |
| 44.3 mg/g | O=c1ccc2ccccc2o1 [coumarin] |
| 78.1 mg/g | CC(C)Cc1ccc(C(C)C(=O)O)cc1 (stereo not drawn) [ibuprofen] |
